In patent US20240261302A1, “METHODS OF TREATING NEURODEGENERATIVE DISEASES OR CONDITIONS” (FloraScience Inc., priority 2023, published 2024):

Legend:
[1] = Cell viability after RSL3 with/without FCCP (CyQUANT DNA-based assay, fluorescence microscopy), mt-GFP WT cells; design: species or system mouse; conditions: mouse, HT22 mt-GFP WT cells, FCCP treatment 40 hr, read-out: decrease in cell viability compared to the vehicle control
[2] = Cell viability after RSL3 with/without FCCP (CyQUANT DNA-based assay, fluorescence microscopy), mt-GFP/mCherry-Parkin cells; design: species or system mouse; conditions: mouse, HT22 mt-GFP/mCherry-Parkin cells, FCCP treatment 40 hr, read-out: decrease in cell viability compared to the vehicle control
[3] = test system: HT22 mt-GFP/mCherry-Parkin cells; test: as above; design: species or system mouse; conditions: for protection against RSL3-induced cell death, no FCCP pretreatment: 16 hr; for protection against RSL3 after FCCP pretreatment (mitochondria-depleted cells): FCCP 5 μM 24 hr, then 16 hr
[4] = test system: HT22 cells; test: Mitochondrial Membrane Potential Assay (JC-10) in HT22 cells; assay type: cell-based, mouse; conditions: 50 nM, 4 hr
Protocol: Mitochondrial Membrane Potential Assay. Cells seeded at 5,000 cells/well onto 96-well black walled plates were treated with test compounds at the desired concentrations under the culture condition described above. The mitochondrial uncoupler FCCP at 2 μM was used as a reference control. After the desired treatments for 4 hr, the cells were subjected to a JC-10 mitochondrial membrane potential assay according to the manufacturer's instruction. Fluorescence intensities (Ex/Em=490/525 nm, and Ex/Em=540/590 nm) of each well were monitored on a SpectraMax M5 microplate reader. The ratio of fluorescence intensity (590/525 nm) was used to determine the mitochondrial membrane potential (ΔΨm). Decreasing ratios indicate mitochondrial membrane depolarization. Samples were analyzed in eight to sixteen wells per independent experiment (n=8-16). Results were verified by live-cell imaging under a fluorescence microscope.

[5] = test system: HT22 cells; test: MitoTracker Assay (mitochondrial mass); assay type: cell-based, mouse; conditions: 50 nM, vs control cells
Protocol: MitoTracker Assay. HT22 cells were seeded onto 96-well black walled plates at a density of 5,000 cells/well in DMEM supplemented with 10% FBS and 1% antibiotics. After the desired treatments, MitoTracker Orange CM−H2TMRos (Ex/Em=554/576 nm) and Hoechst 33342 (Ex/Em=360/460 nm) dyes were added to the cells and incubated under the same culture condition for 2 hr. Fluorescence was measured on a SpectraMax M5 microplate reader. Experiments were performed according to the manufacturer's instructions. Data were normalized for total protein/well. Each condition was analyzed in sixteen wells per independent experiment (n=16). Results were presented as the percentage of the controls with vehicle alone. Results were verified by live-cell imaging under a fluorescence microscope.

[6] = test system: HT22 cells; test: Ferroptosis Assay (RSL3-induced cell death, MTT); assay type: cell-based, mouse
Protocol: Ferroptosis Assay: HT22 cells were seeded at 3,000 cells/well in 96-well tissue culture plates in DMEM plus 10% FBS and 1% antibiotics. After 24 hr of plating, the cells were pretreated with different concentrations of test compounds or a vehicle control for 1 hr followed by coincubation with 50 nM RSL3 to induce the cell death cascade. After 16 hr of treatment, cell viability was measured by the MTT assay. Optical absorbance was measured at 570 nm on a SpectraMax M5 microplate reader. Samples were analyzed in eight to sixteen wells per independent experiment (n=8-16). Results were presented as the percentage of the controls with vehicle alone.

[7] = test system: HT22 cells; test: Cellular Lipid Peroxidation Measurement (C11-BODIPY); assay type: cell-based, mouse
Protocol: Lipid Peroxidation MeasurementsHT22 cells were seeded onto 96-well black walled plates at a density of 3,000 cells/well in DMEM supplemented with 10% FBS and 1% antibiotics. After the desired treatments, cells were labeled with 2.5 μM C11-BODIPY 581/591 (oxidized form Ex/Em=488/520 nm) at 37° C. for 2 hr. Experiments were performed according to the manufacturer's instructions. Fluorescence was measured on a SpectraMax M5 microplate reader. Data were normalized for total protein/well. Each condition was analyzed in twelve wells per independent experiment (n=12). Results were presented as the percentage of the controls with vehicle alone. Results were verified by live-cell imaging under a fluorescence microscope.

[8] = test system: HT22 mt-GFP WT cells; test: Cell viability after RSL3 with/without FCCP (CyQUANT DNA-based assay, fluorescence microscopy), mt-GFP WT cells; design: species or system mouse
[9] = Cell-free, liposome-based assay of lipid peroxidation (STY-BODIPY); assay type: biochemical; conditions: test compounds 10 μM
Protocol: For the cell-free, liposome-based assay, STY-BODIPY (1.5 μM) and liposomes of egg-PC (1 mM) (Avanti Polar Lipids Inc, Cat #840051P, AL) in TBS (pH 7.4) were added to an opaque 96-well plate. This was followed by the addition of test compounds (10 μM). The plate was incubated for 30 min at 37° C. and then vigorously mixed for 5 min. The autoxidation was initiated by the addition of V-70 (0.5 mM) (Fujifilm Wako, Cat #001-70078, Japan), followed by additional mixing for 5 min. Data were acquired at Ex/Em=488/518 nm every 15 min at 37° C. on a SpectraMax M5 microplate reader. Data were transformed into [ox-STY-BODIPY] by taking the raw fluorescent values of the saturated curve of control DMSO and dividing them by the initial concentration of reduced STY-BODIPY ([…]). Samples were analyzed in quadruplicate in four independent experiments (n=4).

[10] = test system: HT22 cells; test: Oxytosis Assay (glutamate-induced cell death, MTT); assay type: cell-based, mouse; conditions: 5 mM, 16 hr, vs control group
Protocol: Oxytosis Assay. HT22 cells were seeded at 3,000 cells/well in 96-well tissue culture plates in DMEM plus 10% FBS and 1% antibiotics. After 24 hr of plating, the cells were pretreated with different concentrations of the test compounds or a vehicle control for 1 hr followed by coincubation with 5 mM glutamate to initiate the cell death cascade. After 16 hr of treatment, cell viability was measured by the 3−(4,5-dimethylthiazol-2-yl)-2,5-diphenyltetrazolium bromide (MTT) assay. Optical absorbance was measured at 570 nm on a SpectraMax M5 microplate reader. Samples were analyzed in eight to sixteen wells per independent experiment (n=8-16). Results were presented as the percentage of the controls with vehicle alone.

[11] = test system: HT22 cells; test: Oxytosis/ferroptosis assay with erastin (Table 2); assay type: cell-based; conditions: Mus musculus, HT-22; erastin as inducer; method not given; read-out: Observed EC50 erastin

N#CC(C#N)=NNc1ccc(OC(F)(F)F)cc1 [FCCP, carbonyl cyanide-4-(trifluoromethoxy)phenylhydrazone, reference compound]
cytotoxicity at 40 hr, 5 μM [1]: ~40% | cytotoxicity at 40 hr, 5 μM [2]: ~40%

COC1=C(OC)C(=O)C(CCCCCCCCCC[P+](c2ccccc2)(c2ccccc2)c2ccccc2)=C(C)C1=O [MitoQ]
protection against RSL3-induced cell death, no FCCP pretreatment [3]: effectively protected | protection against RSL3 after FCCP pretreatment (mitochondria-depleted cells) [3]: showed no cytoprotection

COC(=O)c1ccc([C@@H]2c3[nH]c4ccccc4c3C[C@@H](C(=O)OC)N2C(=O)CCl)cc1 [RSL3, reference compound]
effect on ΔΨm [4]: no impact | decrease of MitoTracker intensity [5]: 8.4% | cell death by inducer alone ([6]; 50 nM, 16 hr, vs control group): 40-60% | increase of cellular lipid peroxidation level ([7]; 50 nM, 16 hr): approximately 30% | cell viability in FCCP pretreated cells [8]: 10-15% | cell viability in FCCP pretreated cells [3]: 10-15%

CCOC(=O)c1ccc(NC2CCCCC2)c(N)c1 [ferrostatin]
inhibition of lipid peroxidation, cell-free [9]: showed a potent effect against lipid peroxidation | RSL3-induced cellular lipid peroxidation ([7]; 50 nM RSL3, 16 hr, p<0.0001): effectively suppressed | basal cellular lipid peroxidation, compound alone ([7]; CBN 5 μM, ferrostatin 10 μM, 16 hr): neither CBN (5 μM) nor ferrostatin (10 μM) alone changed basal levels of lipid peroxidation | protection against RSL3-induced cell death, no FCCP pretreatment [3]: effectively protected | protection against RSL3 after FCCP pretreatment (mitochondria-depleted cells) [3]: rescued

N[C@@H](CCC(=O)O)C(=O)O [glutamate, reference compound]
cell death by inducer alone [10]: 40-60%

CCCCCc1cc(O)c2c(c1)O[C@]1(C)CC[C@@H](C(C)C)[C@H]2C1 [iso-HHC, (2α,5α,6α)-(−)-3,4,5,6-tetrahydro-2-methyl-5-(1-methylethyl)-9-pentyl-2,6-methano-2H-1-benzoxocin-7-ol]
EC50 [11]: 2400 nM | EC50 ([6]; Mus musculus, HT-22, HT22 cells, 1 hr pretreatment, 50 nM RSL3, 16 hr, MTT, read-out: Observed EC50 RSL3): 800 nM
